Assay results: ChEMBL document CHEMBL1201862, “PubChem BioAssay data set” (2004)
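Cultured in 96-well plates, cells were exposed to test compound for 48 hours across five concentrations. Abbreviation: GI50, concentration required for 50% inhibition of growth.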 The source made the active and inactive calls. No stated cut-off is given here; in the data, active = GI50 up to about 1.1 µM and inactive = higher.

Assays:
Assay in all cases: NCI-60 cell line screen, 48 h
EKVX = system: EKVX
HCT-116 = system: HCT-116
HT-29 = system: HT-29
MDA-MB-231 = system: MDA-MB-231
MDA-MB-435 = system: MDA-MB-435
MOLT-4 = system: MOLT-4
NCI-H23 = system: NCI-H23
OVCAR-8 = system: OVCAR-8
PC-3 = system: PC-3
RPMI-8226 = system: RPMI-8226
SF-295 = system: SF-295
SK-MEL-28 = system: SK-MEL-28
SK-MEL-2 = system: SK-MEL-2
SK-MEL-5 = system: SK-MEL-5
SNB-19 = system: SNB-19
SW-620 = system: SW-620
T47D = system: T47D
U-251 = system: U-251
UACC-257 = system: UACC-257
DLD-1 = system: DLD-1

N#CC(C#N)=Cc1c(O)ccc2ccccc12
GI50 (EKVX): 12 µM (inactive) | GI50 (HCT-116): 11.4 µM (inactive) | GI50 (HT-29): 14.5 µM (inactive) | GI50 (MDA-MB-231): 13.2 µM (inactive) | GI50 (MDA-MB-435): 14.4 µM (inactive) | GI50 (MOLT-4): 2.18 µM (inactive) | GI50 (NCI-H23): 12.2 µM (inactive) | GI50 (OVCAR-8): 16.3 µM (inactive) | GI50 (PC-3): 17.5 µM (inactive) | GI50 (RPMI-8226): 11.9 µM (inactive) | GI50 (SF-295): 15 µM (inactive) | GI50 (SK-MEL-28): 14.5 µM (inactive) | GI50 (SK-MEL-2): 13.7 µM (inactive) | GI50 (SK-MEL-5): 13.3 µM (inactive) | GI50 (SNB-19): 15.4 µM (inactive) | GI50 (SW-620): 11.9 µM (inactive) | GI50 (T47D): 13.3 µM (inactive) | GI50 (U-251): 15.9 µM (inactive) | GI50 (UACC-257): 16.8 µM (inactive)

COc1ccc2c3c(coc13)C(CCC(=O)O)CC2 (stereo unspecified)
GI50 (DLD-1): > 100 µM (inactive) | GI50 (EKVX): > 100 µM (inactive) | GI50 (HCT-116): > 100 µM (inactive) | GI50 (HT-29): > 100 µM (inactive) | GI50 (NCI-H23): > 100 µM (inactive) | GI50 (OVCAR-8): > 100 µM (inactive) | GI50 (SF-295): > 100 µM (inactive) | GI50 (SK-MEL-28): > 100 µM (inactive) | GI50 (SK-MEL-5): > 100 µM (inactive) | GI50 (SNB-19): > 100 µM (inactive) | GI50 (SW-620): > 100 µM (inactive) | GI50 (U-251): > 100 µM (inactive) | GI50 (UACC-257): > 100 µM (inactive)

CCOC1c2nc3ccccc3nc2-c2ccccc2N1C(C)=O (stereo unspecified)
GI50 (DLD-1): > 100 µM (inactive) | GI50 (EKVX): > 100 µM (inactive) | GI50 (HCT-116): > 100 µM (inactive) | GI50 (HT-29): > 100 µM (inactive) | GI50 (MOLT-4): > 100 µM (inactive) | GI50 (NCI-H23): > 100 µM (inactive) | GI50 (OVCAR-8): 48.2 µM (inactive) | GI50 (RPMI-8226): > 100 µM (inactive) | GI50 (SF-295): 69.3 µM (inactive) | GI50 (SK-MEL-28): > 100 µM (inactive) | GI50 (SK-MEL-2): 81.7 µM (inactive) | GI50 (SNB-19): > 100 µM (inactive) | GI50 (SW-620): > 100 µM (inactive) | GI50 (U-251): > 100 µM (inactive) | GI50 (UACC-257): > 100 µM (inactive)

CC(N/N=C(\S)N1CCCCCC1)c1cccnn1 (stereo unspecified)
GI50 (EKVX): 0.27 µM (active) | GI50 (HCT-116): 0.325 µM (active) | GI50 (HT-29): 0.483 µM (active) | GI50 (MDA-MB-231): 0.553 µM (active) | GI50 (MDA-MB-435): 0.61 µM (active) | GI50 (MOLT-4): 0.111 µM (active) | GI50 (NCI-H23): 0.254 µM (active) | GI50 (OVCAR-8): 0.239 µM (active) | GI50 (PC-3): 0.104 µM (active) | GI50 (RPMI-8226): 0.155 µM (active) | GI50 (SF-295): 0.403 µM (active) | GI50 (SK-MEL-28): 0.482 µM (active) | GI50 (SK-MEL-2): 1.27 µM (inactive) | GI50 (SK-MEL-5): 0.248 µM (active) | GI50 (SNB-19): 0.381 µM (active) | GI50 (SW-620): 0.147 µM (active) | GI50 (T47D): 0.163 µM (active) | GI50 (U-251): 0.326 µM (active) | GI50 (UACC-257): 0.2 µM (active)
